Read-outs that look alike come from different tables or passages of the source.

Data set [1] can be described thus: Solubility of DPCP in solvents for gels and ointments. Format: physicochemical. The method, then:
(§1) The compatibility and solubility of DPCP was determined in both isopropyl myristate (IPM) as well as Polysorbate 80 (PS80). […] Next, the stability of DPCP in these solvents was determined. A solution of 0.4% DPCP in isopropyl myristate and a solution of 0.4% DPCP in Polysorbate 80 was placed at 50° C. for two weeks. The stability of DPCP in these solvents was determined using reverse phase HPLC on a C18 column.

Data set [2] in a line: Stability of DPCP in solvents at 50° C., reverse phase HPLC on a C18 column. The class given is physicochemical. The method, then: as §1
For the development of a gel formulation, the stability of DPCP was determined in both Ethanol (ETOH) and Isopropanol (IPA) (0.4% DPCP solutions in each solvent was placed at 50° C. for two weeks; FIG. 2. All solutions contained 0.1% BHT). […] However, DPCP was stable in IPA. The stability of DPCP in the above solvents was determined using reverse phase HPLC on a C18 column.

Another data set relates to alopecia areata. The following applies: cited from earlier work.
The next data set relates to CTGF mRNA. The note with it: rat skin, cited from earlier work; for reduction of CTGF mRNA: Days 1 and 3, biopsy Day 8, vs dose matched non-targeting control.

On to `O=c1c(-c2ccccc2)c1-c1ccccc1` [DPCP, Diphenylcyclopropenone], for which the “solubility of DPCP” value in data set [1] (in Polysorbate 80 (PS80)) is reported as “highly soluble”; in data set [1] (in isopropyl myristate (IPM)), about 1.1 % w/w. Moreover, the “stability of DPCP” value in data set [2] (0.4% DPCP in Ethanol, 0.1% BHT, in the presence of citric acid, 50° C., two weeks) is recorded as “Some degradation”; in data set [2] (0.4% DPCP in Isopropanol (IPA), 0.1% BHT, 50° C., two weeks) it was “stable”; in data set [2] (0.4% DPCP in Polysorbate 80, 50° C., two weeks), “some degradation”; in data set [2] (0.4% DPCP in isopropyl myristate, 50° C., two weeks), “stable”; in data set [2] (in PS80 with butylated hydroxytoloune (BHT)) it was “reduce the amount of degradation”. Moreover, in the data set with alopecia areata (alopecia areata patients, 2% sensitizing dose followed by 0.001% challenge doses), the “initial hair regrowth visible after” value was 8-12 weeks. Besides, in the data set on alopecia areata (in over 25 different studies for treating AA with haptens), the response rates is reported as 29-78%.

As for “RXI-109: CTGF-targeting sd-rxRNA consisting of sense strand SEQ ID NO:27 (TEG-Chl) and antisense strand SEQ ID NO:28 (sense GCACCUUUCUAGA; antisense UCUAGAAAGGUGCAAACAU; TEG-cholesterol on sense strand; (2)..(2) Modified with 2′Ome; (4)..(10) Modified with 2′Ome; (11)..(13) Phosphorothioate internucleotide bond; (12)..(13) Modified with 2′Ome; (13)..(13) Modified with TEG-Chl; (1)..(1) Modified with P; (1)..(1) Modified with 2′Ome; (2)..(3) Modified with 2′fluoro; (6)..(6) Modified with 2′Ome; (8)..(8) Modified with 2′Ome; (11)..(11) Modified with 2′fluoro; (13)..(13) Modified with 2′Ome; (13)..(19) Phosphorothioate internucleotide bond; (17)..(17) Modified with 2′Ome)”, the entries for the “reduction of CTGF mRNA” value in the data set on CTGF mRNA (300 μg per intradermal injection) and with CTGF mRNA (600 μg per intradermal injection) were 51% and 67%, respectively. Besides, the “duration of silencing of CTGF vs. non-targeting control” value in the data set on CTGF mRNA (following two intradermal injections) is reported as “sustained for at least five days”.

(Values after patent publication US20180263925A1, “METHODS FOR THE TREATMENT OF ALOPECIA AREATA UTILIZING GENE MODULATION APPROACHES” (RXi Pharmaceuticals Corporation, priority 2014, published 2018).)
